Experiments:
Rattus norvegicus [1] = organism: Rattus norvegicus; test: Molar concentration required to relax rat aorta precontracted with 30 mM KCL by 50% of intrinsic activity (calculated); format: functional
Rattus norvegicus [2] = organism: Rattus norvegicus; test: Molar concentration required to relax rat aorta precontracted with 30 mM KCL by 50% of intrinsic activity; format: functional

SMILES | EC50 (Rattus norvegicus [1]) [nM] | EC50 (Rattus norvegicus [2]) [nM]
CNC(=S)C1=CC(C)(C)Oc2ccc(C(=O)OC)cc21 | 85.1 | 95.5
CCc1ccc2c(c1)C(/C(S)=N\C)=CC(C)(C)O2 | 282 | –
C/N=C(/S)C1=CC(C)(C)Oc2ccc(C#N)cc21 | 21.4 | –
C/N=C(/S)C1=CC(C)(C)Oc2ccc(S(C)(=O)=O)cc21 | 490 | –
C/N=C(/S)C1=CC(C)(C)Oc2ccc(Cl)cc21 | 28.8 | –
C/N=C(/S)C1=CC(C)(C)Oc2ccccc21 | 4470 | –
CNC(=S)C1=CC(C)(C)Oc2ccc(OC)cc21 | 457 | –

Molecules with a lower EC50 (Rattus norvegicus [1]), results first:

EC50 (Rattus norvegicus [1]) [nM] | EC50 (Rattus norvegicus [2]) [nM] | SMILES
15.1 | – | C/N=C(/S)C1=CC(C)(C)Oc2ccc(Br)cc21
1.29 | – | C/N=C(/S)C1=CC(C)(C)Oc2ccc([N+](=O)[O-])cc21
3.98 | – | C/N=C(/S)C1=CC(C)(C)Oc2ccc(OC(F)(F)F)cc21
2.19 | – | C/N=C(/S)C1=CC(C)(C)Oc2ccc(C(F)(F)F)cc21
19.5 | – | C/N=C(/S)C1=CC(C)(C)Oc2ccc(S(=O)(=O)c3ccccc3)cc21
11.7 | – | C/N=C(/S)C1=CC(C)(C)Oc2ccc(C(F)(F)C(F)(F)F)cc21

— ChEMBL document CHEMBL1150991, “Comparative molecular field analysis of benzopyran-4-carbothioamide potassium channel openers” (Bioorg Med Chem Lett, 1994)
